Here are results for seven compounds from patent US10065990B2, “Cyclic peptide compound, and preparation method, pharmaceutical composition and use thereof” (HANGZHOU GUANYU BIO-MEDICAL CO., LTD, priority 2013, dated 2018).

Read-outs that look alike come from different tables or passages of the source. Bounds are passed on as bounds.

In assay [1] the target is T1, HDAC7 (Homo sapiens, UniProt Q8WUI4).
T1 sequence (Q8WUI4 1-952): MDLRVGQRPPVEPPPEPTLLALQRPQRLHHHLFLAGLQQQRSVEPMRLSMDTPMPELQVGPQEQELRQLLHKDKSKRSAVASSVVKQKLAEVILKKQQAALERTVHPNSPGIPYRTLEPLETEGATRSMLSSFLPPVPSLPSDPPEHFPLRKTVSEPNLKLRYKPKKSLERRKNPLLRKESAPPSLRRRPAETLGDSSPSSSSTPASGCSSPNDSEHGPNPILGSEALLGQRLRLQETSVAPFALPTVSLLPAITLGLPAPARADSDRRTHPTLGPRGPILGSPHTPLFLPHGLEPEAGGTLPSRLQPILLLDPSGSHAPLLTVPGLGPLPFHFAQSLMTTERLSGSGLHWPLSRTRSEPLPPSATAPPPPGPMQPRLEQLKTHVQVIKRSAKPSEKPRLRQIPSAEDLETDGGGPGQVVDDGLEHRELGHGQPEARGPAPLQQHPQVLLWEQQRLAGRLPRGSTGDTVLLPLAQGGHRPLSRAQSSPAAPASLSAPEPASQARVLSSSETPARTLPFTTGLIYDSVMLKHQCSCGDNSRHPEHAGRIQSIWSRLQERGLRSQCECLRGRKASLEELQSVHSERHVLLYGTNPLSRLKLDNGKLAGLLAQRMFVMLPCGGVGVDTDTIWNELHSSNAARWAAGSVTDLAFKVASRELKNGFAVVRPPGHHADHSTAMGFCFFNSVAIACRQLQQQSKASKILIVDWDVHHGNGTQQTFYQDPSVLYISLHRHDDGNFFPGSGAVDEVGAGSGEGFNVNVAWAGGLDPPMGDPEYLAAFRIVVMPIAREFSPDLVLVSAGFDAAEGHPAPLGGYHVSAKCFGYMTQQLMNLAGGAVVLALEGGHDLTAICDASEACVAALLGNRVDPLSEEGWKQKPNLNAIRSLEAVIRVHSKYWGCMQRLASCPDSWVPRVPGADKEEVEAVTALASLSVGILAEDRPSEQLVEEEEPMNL
Nature of the assay: HDAC biochemical activity measurement (fluorescent substrate deacetylation). As to conditions: HDAC7; 37° C. 30 minutes.

The target of assay [2] is T2, HDAC8 (Homo sapiens, UniProt Q9BY41).
T2 sequence (Q9BY41 1-377): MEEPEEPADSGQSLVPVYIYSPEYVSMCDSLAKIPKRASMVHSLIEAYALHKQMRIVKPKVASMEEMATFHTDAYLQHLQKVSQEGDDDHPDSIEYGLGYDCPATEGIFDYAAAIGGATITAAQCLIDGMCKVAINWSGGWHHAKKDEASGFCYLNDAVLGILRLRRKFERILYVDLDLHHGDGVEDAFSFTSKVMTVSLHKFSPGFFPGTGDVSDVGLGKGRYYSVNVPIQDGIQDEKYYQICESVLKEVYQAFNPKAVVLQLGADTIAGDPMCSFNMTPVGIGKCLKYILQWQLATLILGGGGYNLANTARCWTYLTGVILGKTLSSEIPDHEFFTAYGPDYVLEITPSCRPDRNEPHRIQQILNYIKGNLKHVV
The assay is described as above. The conditions noted are these: 37° C. 30 minutes.

The target of assay [3] is HDAC3 (Homo sapiens, UniProt O15379). The description is as above.
For assay [4], the target named is HDAC1 (Homo sapiens, UniProt Q13547). The description is as above.
Assay [5] deals with BGC-823 (human gastric cancer cells). The experiment in a line: MTT cancer cell growth inhibition. In kind it is cell-based. The conditions noted are these: Homo sapiens, BGC-823, 72 h, MTT. The method, boiled down:
(§1)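 Tumour cells in 10% FBS-supplemented DMEM or RPMI 1640 are plated at 1500 per well, dosed next day with compound (10^−5 through 10^−10 M, final) and kept 72 h. MTT is added for 4 h; dissolved formazan is measured at 570 nm and GI50 determined.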

Assay [6] deals with MDA-MB-231 (breast cancer cells). The experiment in a line: MTT cancer cell growth inhibition. In kind it is cell-based. As to conditions: Homo sapiens, MDA-MB-231, 72 h, read-out: GI50 MDA-MB-231, MTT, 72 hours incubation, MDA-MB-231 cells. The essentials: as §1
For assay [7], the system named is SGC-7901 (human gastric cancer cells). The experiment in a line: MTT cancer cell growth inhibition. In kind it is cell-based. The conditions noted are these: Homo sapiens, SGC-7901, 72 h, MTT, 72 hours incubation, SGC-7901 cells; read-out: GI50 SGC-7901. The essentials: as §1
Assay [8] deals with Huh-7 (human hepatoma cells). Nature of the assay: MTT cancer cell growth inhibition. As to conditions: Homo sapiens, Huh-7, 72 h, MTT, 72 hours incubation, Huh-7 cells; read-out: GI50 Huh-7. In kind it is cell-based. The method, boiled down: as §1
The subject of assay [9] is KBM5-T315I (human chronic myelogenous leukemia). The experiment in a line: MTT cancer cell growth inhibition. In kind it is cell-based. As to conditions: Homo sapiens, 72 h, MTT, 72 hours incubation, KBM5-T315I cells; read-out: GI50 KBM5-T315I. The essentials:
as §1

The subject of assay [10] is HT1080 (human fibrosarcoma cells). Nature of the assay: MTT cancer cell growth inhibition. In kind it is cell-based. As to conditions: Homo sapiens, HT-1080, 72 h, MTT. The method, boiled down: as §1
Assay [11] relates to KBM-5 (human chronic myelogenous leukemia). Nature of the assay: MTT cancer cell growth inhibition. In kind it is cell-based. The conditions noted are these: Homo sapiens, KBM5, 72 h, MTT, 72 hours incubation, KBM-5 cells; read-out: GI50 KBM-5. The method, boiled down:
as §1

Assay [12] concerns Hela (human cervical cancer cells). Nature of the assay: MTT cancer cell growth inhibition. The conditions noted are these: Homo sapiens, HeLa, 72 h, MTT. In kind it is cell-based. The essentials: as §1
In assay [13] the test system is N-87 (human gastric cancer cells). The experiment in a line: MTT cancer cell growth inhibition. In kind it is cell-based. As to conditions: Homo sapiens, 72 h, MTT, 72 hours incubation, N-87 cells; read-out: GI50 N-87. The method, boiled down:
as §1

[14] abbreviates: read-out: IC50 HDAC3, HDAC3, 37° C. 30 minutes.
Where [15] appears, read: HDAC1, 37° C. 30 minutes, read-out: IC50 HDAC1.
Where [16] appears, read: Table 3, read-out: IC50 HDAC1, D (non-substituent).
The mark [17] stands for this setting: 72 hours incubation, read-out: GI50 BG.
Where [18] appears, read: 72 hours incubation, read-out: GI50 HT1.
The mark [19] stands for this setting: 72 hours incubation, read-out: GI50 Hela.
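For IC50 HDAC1 in this document: fluorogenic acetyl-lysine substrate (20 µM) deacetylated by HDAC1, then developer releases fluorophore read at 360 nm excitation and 460 nm emission, inhibitor incubated 30 min at 37 °C.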
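For IC50 HDAC1, C (six-membered ring with substituents) in this document: fluorogenic acetyl-lysine substrate (20 µM) deacetylated by HDAC1, then developer releases fluorophore read at 360 nm excitation and 460 nm emission, inhibitor incubated 30 min at 37 °C.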
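For IC50 HDAC1, D (non-substituent) in this document: fluorogenic acetyl-lysine substrate (20 µM) deacetylated by HDAC1, then developer releases fluorophore read at 360 nm excitation and 460 nm emission, inhibitor incubated 30 min at 37 °C.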
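For IC50 HDAC1, a (compounds of the present invention) in this document: fluorogenic acetyl-lysine substrate (20 µM) deacetylated by HDAC1, then developer releases fluorophore read at 360 nm excitation and 460 nm emission, inhibitor incubated 30 min at 37 °C.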
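For IC50 HDAC7 in this document: fluorogenic deacetylation assay using acetyl-lysine substrate at 20 µM, enzyme and compound incubated 30 min at 37 °C, then developer added, fluorescence read at 360/460 nm.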

HDAC3, sequence (O15379 whole entry, species assumed): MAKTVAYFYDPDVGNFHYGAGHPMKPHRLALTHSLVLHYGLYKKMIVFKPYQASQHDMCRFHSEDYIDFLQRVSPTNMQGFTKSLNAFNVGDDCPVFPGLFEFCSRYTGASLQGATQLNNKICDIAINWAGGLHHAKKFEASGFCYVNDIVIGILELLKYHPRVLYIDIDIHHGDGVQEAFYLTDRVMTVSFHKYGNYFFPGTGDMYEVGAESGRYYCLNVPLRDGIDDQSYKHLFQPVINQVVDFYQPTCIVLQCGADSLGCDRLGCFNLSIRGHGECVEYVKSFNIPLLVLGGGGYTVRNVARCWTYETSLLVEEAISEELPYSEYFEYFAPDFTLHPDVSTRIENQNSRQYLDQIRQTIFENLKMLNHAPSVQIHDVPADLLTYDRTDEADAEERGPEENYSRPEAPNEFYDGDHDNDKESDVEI
HDAC3, sequence (Q9Y618 395-489 partner limits assumed, species assumed): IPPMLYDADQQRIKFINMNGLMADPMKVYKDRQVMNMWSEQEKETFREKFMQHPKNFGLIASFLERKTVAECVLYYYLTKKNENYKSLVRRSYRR
HDAC1, sequence (Q13547 whole entry, species assumed): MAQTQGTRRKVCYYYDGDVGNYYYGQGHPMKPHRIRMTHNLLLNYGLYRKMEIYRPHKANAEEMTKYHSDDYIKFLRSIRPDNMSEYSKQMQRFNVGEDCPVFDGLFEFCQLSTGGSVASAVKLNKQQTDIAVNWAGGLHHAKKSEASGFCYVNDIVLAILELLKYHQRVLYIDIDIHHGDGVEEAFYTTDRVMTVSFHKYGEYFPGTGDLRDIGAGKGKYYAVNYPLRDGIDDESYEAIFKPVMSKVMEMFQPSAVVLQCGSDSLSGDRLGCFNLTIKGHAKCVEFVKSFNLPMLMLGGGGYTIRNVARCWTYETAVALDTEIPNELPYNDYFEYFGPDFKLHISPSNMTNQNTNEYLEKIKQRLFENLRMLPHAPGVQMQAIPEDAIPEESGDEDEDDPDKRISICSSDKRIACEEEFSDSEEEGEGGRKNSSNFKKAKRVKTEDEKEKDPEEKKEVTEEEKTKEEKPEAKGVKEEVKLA

As for `C/C=C1\NC(=O)c2cccc(n2)CNC(=O)C[C@@H](/C=C/CCSC(=O)CCCCCCC)OC(=O)[C@H](C)NC1=O` [Compound 11], the “IC50 HDAC7” value in [1] is listed as “no activity”. In addition, the half-inhibitory concentration (IC50) (commonly the concentration that inhibits the measured activity by half) is 71 nM in assay [2]; 45 nM in assay [3] (setting [14]); 29 nM in assay [4] (setting [15]); < 30 nM in assay [4] (Table 2, read-out: IC50 HDAC1, a (compounds of the present invention)); 29 nM in assay [4] (setting [16]). Besides, the GI50 – broadly, the concentration that inhibits growth by half – came to 410 nM in assay [5] (setting [17]); 410 nM in assay [5] (72 hours, present invention, read-out: GI50 BGC823, a); 86 nM in [6]; 35 nM in assay [7]; 43 nM in assay [8]; 26 nM in assay [9]. The GI50 is 140 nM in assay [10] (setting [18]); 140 nM in [10] (72 hours, present invention, read-out: GI50 HT1080, a); 62 nM in [11]; 120 nM in [12] (setting [19]); 120 nM in [12] (72 hours, present invention, read-out: GI50 Hela, a); 37 nM in assay [13].

As for `C/C=C1\NC(=O)c2cccc(n2)CNC(=O)C[C@@H](/C=C/CCSC(=O)CCC)OC(=O)[C@H](C(C)C)NC1=O` [Compound 5], the “IC50 HDAC7” value in assay [1] is “no activity”. Besides, the IC50 was determined as 67 nM in assay [2], 49 nM in assay [3] (setting [14]), 74 nM in [4] (setting [15]) and 74 nM in assay [4] (setting [16]). For the same compound, the GI50 in assay [5] (setting [17]) was found to be 60 nM; in [6], 82 nM; in [7] it was 43 nM; in [8] it was 72 nM; in assay [9] it was 33 nM; in assay [10] (setting [18]), 70 nM. Moreover, the GI50 in assay [11] came to 72 nM; in assay [12] (setting [19]) it was 50 nM; in assay [13], 37 nM.

Consider `C/C=C1\NC(=O)c2cccc(n2)CNC(=O)C[C@@H](/C=C/CCSC=O)OC(=O)[C@H](C(C)C)NC1=O` [Compound 8], for which the “IC50 HDAC7” value in [1] is on record as “no activity”. For the same compound, the IC50 came out at 41 nM in assay [2], 51 nM in assay [3], 153 nM in [4] (setting [15]) and 153 nM in [4] (setting [16]). The GI50 was determined as 90 nM in [5] (setting [17]); 93 nM in assay [6]; 43 nM in assay [7]; 61 nM in [8]; 63 nM in assay [9]; 90 nM in assay [10] (setting [18]). For the same compound, the GI50 in assay [11] turned out to be 51 nM; in assay [12] (setting [19]) it was 70 nM; in [13], 34 nM.

`C/C=C1\NC(=O)c2nc(ccc2F)CNC(=O)C[C@@H](/C=C/CCSC(=O)CCCCCC)OC(=O)[C@H](C(C)C)NC1=O` [Compound 33]: the “IC50 HDAC7” value in [1] was “no activity”. Moreover, the IC50 in assay [2] is 59 nM; in [3] (setting [14]), 36 nM; in assay [4] (setting [15]), 23 nM; in assay [4] (Table 3, column C, read-out: IC50 HDAC1, C (six-membered ring with substituents)) it was 23 nM. Also, the GI50 in assay [5] (setting [17]) was 60 nM; in assay [6], 31 nM; in assay [7], 52 nM; in assay [8], 31 nM; in assay [9] it was 51 nM; in [10] (setting [18]), 80 nM. Also, the GI50 in assay [11] came out at 83 nM; in assay [12] (setting [19]), 80 nM; in [13], 61 nM.

On to `C/C=C1\NC(=O)c2cc(F)cc(n2)CCNC(=O)C[C@@H](/C=C/CCSC(C)=O)OC(=O)[C@H](C(C)C)NC1=O` [Compound 104], for which the “IC50 HDAC7” value in [1] was “no activity”. In addition, the IC50 in assay [2] stood at 19 nM; in assay [3], 43 nM; in assay [4] (setting [15]), 51 nM. Besides, the GI50 in assay [5] (setting [17]) is 10 nM; in assay [6], 20 nM; in [7] it was 26 nM; in assay [8] it was 89 nM; in assay [9], 68 nM; in assay [10] (setting [18]) it was 90 nM. For the same compound, the figures for the GI50 in [11], in assay [12] (setting [19]) and in assay [13] were 79 nM, 30 nM and 96 nM, respectively.

For the compound `C/C=C1\NC(=O)c2cccc(n2)CNC(=O)C[C@@H](/C=C/CCSC(C)=O)OC(=O)[C@H](Cc2cccc3ccccc23)NC1=O` [Compound 17], the “IC50 HDAC7” value in [1] is “no activity”. Moreover, the IC50 in assay [2] came to 81 nM; in assay [3] (setting [14]) it was 69 nM; in assay [4] (setting [15]), 176 nM; in assay [4] (setting [16]) it was 176 nM. In addition, the GI50 in assay [5] (setting [17]) turned out to be 19700 nM; in assay [6] it was 79 nM; in assay [7], 53 nM; in assay [8], 61 nM; in assay [9] it was 28 nM; in assay [10] (setting [18]), 970 nM. In addition, the GI50 in assay [11] worked out at 81 nM; in assay [12] (setting [19]) it was 11000 nM; in [13] it was 43 nM.

With `C/C=C1\NC(=O)c2nc(ccc2F)CNC(=O)C[C@@H](/C=C/CCSC(=O)CC)OC(=O)[C@H](C(C)C)NC1=O` [Example 45], the “IC50 HDAC7” value in [1] is given as “no activity”. For the same compound, the values for the IC50 in assay [2], in assay [3] and in [4] (setting [15]) were 25 nM, 41 nM and 64 nM, respectively. Moreover, the GI50 in assay [5] (setting [17]) is 50 nM; in assay [6] it was 37 nM; in assay [7], 43 nM; in assay [8] it was 37 nM; in [9], 59 nM; in [10] (setting [18]) it was 60 nM. The concentration for 50% growth inhibition (GI50) in assay [11] was determined as 94 nM; in assay [12] (setting [19]) it was 90 nM; in [13], 67 nM.
